Results as given in patent US3959519A, “Fortification of food materials with a methionine source” (priority 1975, dated 1976).
Where a SMILES comes first, the peptide text is derived from it.

Legend:
[1] = Odor development on storage in sealed containers; assay type: physicochemical; conditions: recrystallized sample, sealed container, twenty-nine days at 45°C.
Description: Samples of virtually odorless, recrystallized D,L-methionine, glycyl-D,L-methionine, and D,L-alanyl-D,L-methionine were stored in sealed containers for twenty-nine days at 45°C.

[2] = Chick feeding test, body weight and feed efficiency on fortified corn-soy rations; assay type: in vivo, cockerels (Barred Rock males x Rhode Island females); conditions: for difference between responses from methionine and glycylmethionine supplemented rations: 0.15% D,L-methionine vs 0.2% glycyl-D,L-methionine; for feed efficiencies / growth: corn-soy poultry ration with 0.15% D,L-methionine or 0.2% glycyl-D,L-methionine
Text: For this test, cockerels are produced from a cross of Barred Rock males and Rhode Island females. All the 150 cockerels are selected on the basis that their weight differs no more than 2 grams. The birds are maintained on an all vegetable protein corn-soy basal diet for a 2-week preliminary period. At the end of this period, a median group of 90 birds is selected on the basis of weight, and they are then evenly distributed into three experimental groups, which in turn are placed on the experimental rations (Table 2). The level of glycyl-D,L-methionine in Diet No. 3 is equivalent to the level of D,L-methionine in Diet No. 2, on the basis of L-methioninecontent. The birds are weighed weekly and their feed consumption also determined weekly, to permit weekly feed efficiency evaluations. […] | -- -- 92 g.

[3] = tested on: Leuconostoc mesenteroides P-60; assay: L-methionine bioavailability from dipeptides by turbidimetric growth response of a methionine-requiring bacterial mutant; assay type: cell-based; conditions: for utilization as a source of L-methionine by L. mesenteroides P-60: 17 hours of incubation at 37°C.; for L-Methionine Response / L-Methionine, % of Theoretical: 17 hours, 37°C.
Text: The utilization of methionine-containing peptide can be shown, for example, in animal feeding tests. However, the formation of free methionine can also be shown directly in tests with a microorganism requiring methionine for its growth and reproduction. The following Example describes a quantitative test involving a known bacterial mutant.
Leuconostoc mesenteroides P-60 was the bacterial mutant used to assess the biological availability of L-methionine in glycyl-D,L-methionine, glycyl-L-methionine and L-methionylglycine. This mutant is unable to synthesize methionine and therefore requires an external source of this amino acid.
Under aseptic conditions, a substrate devoid of L-methionine was supplemented with graded amounts of glycyl-D,L-methionine, glycyl-L-methionine, and L-methionylglycine and then inoculated with a drop of a washed L. mesenteroides P-60 culture. After 17 hours of incubation at 37°C., the growth of L. mesenteroides P-60 in each of the culture tubes was measured turbidimetrically, at a wavelength of […]. Based on the growth response of this mutant to a similar treatment with a standard L-methionine solution of known concentration, the L-methionine response, if any, to the candidate peptides was evaluated.

[4] = level tested 12 μg./tube, calculated L-methionine equivalence 4.0 μg. (glycyl-D,L-methionine) or 8.0 μg. (L-dipeptides)
[5] = level tested 24 μg./tube, calculated L-methionine equivalence 8.0 μg.
[6] = level tested 6 μg./tube, calculated L-methionine equivalence 4.0 μg.

| odor after storage [1] | Compound | difference between responses from methionine and glycylmethionine supplemented rations [2] | feed efficiencies [2] | growth [2] | utilization as a source of L-methionine by L. mesenteroides P-60 [3] | L-Methionine Response [3, 4] | L-Methionine, % of Theoretical [3, 4] | L-Methionine Response [3, 5] | L-Methionine, % of Theoretical [3, 5] | L-Methionine Response [3, 6] | L-Methionine, % of Theoretical [3, 6] |
| --- | --- | --- | --- | --- | --- | --- | --- | --- | --- | --- | --- |
| developed a typical sulfurous odor | CSCCC(NC(=O)C(C)N)C(=O)O (mixture of isomers) [D,L-alanyl-D,L-methionine] | – | – | – | – | – | – | – | – | – | – |
| developed a typical sulfurous odor | CSCCC(N)C(=O)O (racemic) [D,L-Methionine, D,L-methionine, reference compound] | No significant difference | improved feed efficiencies | significant growth increases | – | – | – | – | – | – | – |
| – | CSCC[C@H](NC(=O)CN)C(=O)O [Glycyl-L-Methionine, glycyl-L-methionine] | – | – | – | can utilize | 7.8 µg | 97% | – | – | 4.5 µg | 112% |
| – | CSCC[C@H](N)C(=O)NCC(=O)O [L-Methionylglycine, L-methionylglycine] (H-Met-Gly-OH) | – | – | – | can utilize | 7.5 µg | 94% | – | – | 4.0 µg | 100% |

| Compound | odor after storage [1] | difference between responses from methionine and glycylmethionine supplemented rations [2] | feed efficiencies [2] | growth [2] | utilization as a source of L-methionine by L. mesenteroides P-60 [3] | L-Methionine Response [3, 4] | L-Methionine, % of Theoretical [3, 4] | L-Methionine Response [3, 5] | L-Methionine, % of Theoretical [3, 5] | L-Methionine Response [3, 6] | L-Methionine, % of Theoretical [3, 6] |
| --- | --- | --- | --- | --- | --- | --- | --- | --- | --- | --- | --- |
| CSCCC(NC(=O)CN)C(=O)O (racemic) [Glycyl-D,L-Methionine, glycyl-D,L-methionine] | still virtually odor-free | No significant difference | improved feed efficiencies | significant growth increases | can utilize | 3.5 µg | 88% | 7.5 µg | 94% | – | – |
